Patent US6346402B1, “(S)-α-phenethylamine: pyruvate transaminase” (Kaneka Corporation, priority 1998, dated 2002)
“Also recorded” adds a separate entry of the source.

Assays:
[1] = system: (S)-α-phenethylamine:pyruvate transaminase; assay: Substrate specificity for amino group receptors (acetophenone quantified by HPLC); type: biochemical, Pseudomonas sp. KNK425
Description: The mixture was reacted at 30° C. for 1 hour. The resulting reaction mixture was analyzed by high-performance liquid chromatography, to quantify acetophenone.
(§1) The assay conditions by high-performance liquid chromatography are as follows.

[2] = system: (S)-α-phenethylamine:pyruvate transaminase; assay: Substrate specificity for amino group donors (dabsylated alanine quantified by HPLC); type: biochemical, Pseudomonas sp. KNK425; details: for Relative Activity (%): substance as amino group donor, 22.5 mM, 22.5 mM pyruvic acid, pH 7.0, 30° C., 1 hour, (S)-phenethylamine = 100, Table 2
Description: The mixture was reacted at 30° C. for 1 hour, and thereafter immersed in boiling water for 5 minutes, to stop the reaction. The reaction mixture obtained after termination of reaction was diluted five times with 0.2M sodium carbonate buffer, and 0.2 mL of a 10 mM acetone solution of dabsyl chloride was added to 0.1 mL portion of the resulting dilution. The reaction mixture was reacted at 70° C. for 15 minutes, and after cooling, 0.1 mL of 1 N HCl was added. This reaction mixture was analyzed by high-performance liquid chromatography to quantify dabsylated alanine.
as §1
The results thereof, expressed in terms of the relative activity where an activity when using (S)-phenethylamine as an amino group donor is 100, are shown in Table 2.

[3] = system: (S)-α-phenethylamine:pyruvate transaminase; assay: as above; type: biochemical, Pseudomonas sp. KNK425; details: substance as amino group donor; for Relative Activity (%): Table 1; for Relative Activity (%) of (S)-α-Phenethylamine:Pyruvate Transaminase [Present Invention]: Table 4
[4] = system: ω-amino acid:pyruvate transaminase; details: substance as amino group donor; amino group receptor pyruvic acid; Table 4; cited from earlier work
[5] = system: 4-aminobutyrate:2-ketoglutarate transaminase; details: substance as amino group donor; amino group receptor 2-ketoglutaric acid; Table 4; cited from earlier work
[6] = ketone compound as amino group receptor, donor (S)-α-phenethylamine, same manner as Example 5, Table 5
[7] = amino group receptor pyruvic acid
[8] = substance as amino group receptor, 22.5 mM, donor 22.5 mM (S)-α-phenethylamine, pH 7.0, 30° C., 1 hour, pyruvic acid = 100, Table 3
[9] = compound as amino group receptor, donor (S)-α-phenethylamine, same manner as Example 5, Table 6
[10] = amino group receptor 2-ketoglutaric acid

## CC(=O)c1nccs1 [2-Acetylthiazole]
[1]; [6]
  Relative Activity (%): 4%

## NC1CCCCC1 [Cyclohexylamine]
[2]
  Relative Activity (%): 1%

## CC(=O)c1ccc(Cl)cc1 [4′-Chloroacetophenone]
[1]; [6]
  Relative Activity (%): 22%

## CCCCN [n-Butylamine]
[2]
  Relative Activity (%): 2%

## C[C@@H](N)c1ccccc1 [(R)-α-Phenethylamine]
[2]
  Relative Activity (%): 3%

## CCCN [n-Propylamine]
[2]
  Relative Activity (%): 0%

## NCCCCC(N)C(=O)O (racemic) [DL-Lysine]
[3]; [7]
  Relative Activity (%): 0%
[2]
  Activity of the enzyme to the substance as amino group donor (in words): not exhibiting activity; also recorded: does not act

## N[C@@H](CC(=O)O)C(=O)O [L-Aspartic Acid]
[3]; [7]
  Relative Activity (%): 0%
[2]
  Activity of the enzyme to the substance as amino group donor (in words): does not act

## CC(=O)c1ccco1 [2-Acetylfuran]
[1]; [6]
  Relative Activity (%): 3%

## O=CC(=O)O [Glyoxylic acid]
[1]
  Activity of the enzyme to the substance as amino group receptor (in words): high activity; also recorded: exhibiting activity; also recorded: exhibits activity
[1]; [8]
  Relative Activity (%): 100%

## COc1cccc(C(C)=O)c1 [3′-Methoxyacetophenone]
[1]; [6]
  Relative Activity (%): 4%

## CCCC(C)N (stereo not shown) [2-Pentylamine]
[2]
  Relative Activity (%): 4%

## CC(=O)c1ccccn1 [2-Acetylpyridine]
[1]; [6]
  Relative Activity (%): 42%

## NCC(=O)O [Glycine]
[3]; [7]
  Relative Activity (%): 0%
[2]
  Activity of the enzyme to the substance as amino group donor (in words): does not act

## CC(N)c1cccc(O)c1 (stereo not drawn) [3′-Hydroxy-α-phenethylamine]
[2]
  Relative Activity (%): 52%

## CC(N)CCc1ccccc1 (stereo not shown) [1-Phenyl-3-aminobutane]
[2]
  Relative Activity (%): 80%

## O=CCc1ccccc1 [Phenylacetaldehyde]
[1]; [9]
  Relative Activity (%): 37%

## CCCC(=O)C(=O)O [2-Keto-valeric acid]
[1]; [8]
  Relative Activity (%): 1.5%

## COc1ccc(CCC(C)=O)cc1 [4-(4′-Methoxyphenyl)-2-butanone]
[1]; [6]
  Relative Activity (%): 35%

## COCC(C)=O [Methoxypropanone]
[1]; [9]
  Relative Activity (%): 5%

## CC(=O)c1cnccn1 [Acetylpyrazine]
[1]; [6]
  Relative Activity (%): 100%

## NCCCc1ccccc1 [3-Phenylpropylamine]
[2]
  Relative Activity (%): 1%

## CC(C)N [Isopropylamine]
[2]
  Relative Activity (%): 0%

## NCCCCN [Putrescine]
[4]
  Relative Activity (%) of ω-Amino acid:Pyruvate Transaminase [Derived from Pseudomonas F-126]: 18%
[3]; [10]
  Relative Activity (%) of (S)-α-Phenethylamine:Pyruvate Transaminase [Present Invention]: 0%
[3]; [7]
  Relative Activity (%) of (S)-α-Phenethylamine:Pyruvate Transaminase [Present Invention]: 0%
[5]
  Relative Activity (%) of 4-Aminobutyrate:2-ketoglutarate Transaminase [Derived from Pseudomonas F-126]: 8%
[2]
  Activity of the enzyme to the substance as amino group donor (in words): does not act; also recorded: not exhibiting activity

## Cl.N [Ammonium Chloride]
[3]; [7]
  Relative Activity (%): 0%
[2]
  Activity of the enzyme to the substance as amino group donor (in words): does not also act

## CC(=O)Cc1cccc(C(F)(F)F)c1 [3′-Trifluoromethylphenyl acetone]
[1]; [6]
  Relative Activity (%): 60%

## COc1ccc(CC(C)=O)cc1 [4′-Methoxyphenyl acetone]
[1]; [6]
  Relative Activity (%): 12%

## COc1ccc(CC(C)N)cc1OC (stereo not shown) [1-(3,4-Dimethoxyphenyl)-2-aminopropane]
[2]
  Relative Activity (%): 18%

## NC(CCC(=O)O)C(=O)O (racemic) [DL-Glutamic Acid]
[3]; [7]
  Relative Activity (%): 0%
[2]
  Activity of the enzyme to the substance as amino group donor (in words): does not act

## O=CCCc1ccccc1 [3-Phenylpropionaldehyde]
[1]; [9]
  Relative Activity (%): 16%

## NCc1ccccc1 [Benzylamine]
[2]
  Relative Activity (%): 13%

## CC(=O)c1cccc(O)c1 [3′-Hydroxyacetophenone]
[1]; [6]
  Relative Activity (%): 6%

## CCCCCCC(C)N (stereo not shown) [2-Octylamine]
[2]
  Relative Activity (%): 46%

## CCCCCN [Amylamine]
[2]
  Relative Activity (%): 5%

## NCCCC(=O)O [4-Aminobutyric acid]
[3]; [10]
  Relative Activity (%) of (S)-α-Phenethylamine:Pyruvate Transaminase [Present Invention]: 0%
[5]
  Relative Activity (%) of 4-Aminobutyrate:2-ketoglutarate Transaminase [Derived from Pseudomonas F-126]: 100%
[2]
  Activity of the enzyme to the substance as amino group donor (in words): does not act

## CC(=O)c1cccnc1 [3-Acetylpyridine]
[1]; [6]
  Relative Activity (%): 14%

## CCC(=O)Cc1ccccc1 [1-Phenyl-2-butanone]
[1]; [6]
  Relative Activity (%): 5%

## COc1ccc(CC(C)=O)cc1OC [3′,4′-Dimethoxyphenyl acetone]
[1]; [6]
  Relative Activity (%): 38%

## NCCc1ccccc1 [β-Phenethylamine]
[2]
  Relative Activity (%): 23%

## NCCS(=O)(=O)O [Taurine]
[4]
  Relative Activity (%) of ω-Amino acid:Pyruvate Transaminase [Derived from Pseudomonas F-126]: 132%
[3]; [7]
  Relative Activity (%) of (S)-α-Phenethylamine:Pyruvate Transaminase [Present Invention]: 0%
[2]
  Activity of the enzyme to the substance as amino group donor (in words): does not act; also recorded: not exhibiting activity

## NCCC(=O)O [β-Alanine]
[4]
  Relative Activity (%) of ω-Amino acid:Pyruvate Transaminase [Derived from Pseudomonas F-126]: 100%
[3]; [10]
  Relative Activity (%) of (S)-α-Phenethylamine:Pyruvate Transaminase [Present Invention]: 0%
[3]; [7]
  Relative Activity (%) of (S)-α-Phenethylamine:Pyruvate Transaminase [Present Invention]: 0%
[5]
  Relative Activity (%) of 4-Aminobutyrate:2-ketoglutarate Transaminase [Derived from Pseudomonas F-126]: 0%
[2]
  Activity of the enzyme to the substance as amino group donor (in words): does not act; also recorded: not exhibiting activity

## CC(=O)CC(=O)c1ccccc1 [Benzoyl acetone]
[1]; [6]
  Relative Activity (%): 12%

## O=C(O)CCC(=O)C(=O)O [2-Ketoglutaric acid]
[1]
  Activity of the enzyme to the substance as amino group receptor (in words): did not exhibit an activity; also recorded: does not act
[1]; [8]
  Relative Activity (%): 0%

## CC(=O)c1ccccc1O [2′-Hydroxyacetophenone]
[1]; [6]
  Relative Activity (%): 24%

## CCC(=O)C(=O)O [2-Ketobutyric acid]
[1]; [8]
  Relative Activity (%): 5.8%

## CC(=O)C(=O)O [Pyruvic acid]
[1]
  Activity of the enzyme to the substance as amino group receptor (in words): high activity; also recorded: exhibiting activity; also recorded: exhibits activity
[1]; [9]
  Relative Activity (%): 100%
[1]; [8]
  Relative Activity (%): 100%

## C[C@H](N)c1ccccc1 [(S)-α-Phenethylamine]
[3]; [7]
  Relative Activity (%): 100%
  Relative Activity (%) of (S)-α-Phenethylamine:Pyruvate Transaminase [Present Invention]: 100%
[2]
  Activity of the enzyme to the substance as amino group donor (in words): especially high activity; also recorded: specifically high activity; also recorded: exhibiting activity; also recorded: exhibits high activity
  Relative Activity (%): 100%

## CC(=O)CCc1ccccc1 [Benzyl acetone]
[1]; [6]
  Relative Activity (%): 70%

## CC(=O)COc1ccccc1 [Phenoxy-2-propanone]
[1]; [9]
  Relative Activity (%): 46%

## CCCCCC(C)N (stereo not shown) [2-Heptylamine]
[2]
  Relative Activity (%): 28%

## CC(=O)c1ccncc1 [4-Acetylpyridine]
[1]; [6]
  Relative Activity (%): 8%

## CCC(C)N (stereo not shown) [2-Butylamine]
[2]
  Relative Activity (%): 1%
